According to patent publication US20260248881A1, “PHARMACEUTICAL COMPOSITION COMPRISING FOXM1 INHIBITOR AND IMMUNE CHECKPOINT INHIBITOR FOR PREVENTING OR TREATING CANCER” (National Cancer Center, priority 2022, published 2026):

Tests used:
CD274 promoter = experiment: Dual-luciferase assay with CD274 promoter-luciferase construct; format: cell-based, human; conditions: TST in the presence of IFNγ
Source text: The pGL3 plasmid containing a 2 kb promoter of CD274 (#107003; Addgene, Watertown, MA, USA) was kindly provided by Julian Downward lab (Coelho M A, de Carne Trecesson S, Rana S, Zecchin D, Moore C, Molina-Arcas M, East P, Spencer-Dene B, Nye E, Barnouin K, Snijders A P, Lai W S, Blackshear P J, Downward J, Immunity 2017, 47, 1083.). H1299 and PC9 cells were co-transfected with a pGL3 2 kb promoter. Cells containing CD274 or control pGL3-basic plasmid and pGL4.70 hRluc Renilla luciferase vector (Promega, Madison, WI, USA) were transfected with siFOXM1 or treated with TST in the presence of interferon-gamma (IFNγ). Cells were harvested 48 hours after transfection, and a dual luciferase assay was performed to the according manufacturer's protocol (#E1910; Promega). At least four independent biological replicates were examined to obtain reliable results.

FOXM1 and PD-L1 = FOXM1 and PD-L1 expression in MC38 cells (immunoblotting, confocal imaging); format: cell-based, mouse
Protocol: Human colorectal cancer cell lines (HCT116, HCT8, and SW480) and human primary coronary artery smooth muscle cells (SMCs) were purchased from the American Type Culture Collection (Manassas, VA, USA), and a MC38 mouse colorectal adenocarcinoma cell line was provided by Dr. Beom-Kyu Choi (National Cancer Center, Goyang, Republic of Korea). MC38 cells were cultured in Dulbecco's modified Eagle's medium (DMEM) supplemented with 10% FBS and 1% penicillin/streptomycin. SW480 and HCT8 cells were cultured in Roswell Park Memorial Institute (RPMI) medium supplemented with 10% FBS and 1% penicillin/streptomycin. […]
For immunoblotting analysis, protein concentrations were measured using a bicinchoninic acid kit (Cat. 23225; Thermo Fisher Scientific, Carlsbad, CA, USA). […] The appropriate secondary antibodies conjugated to horseradish peroxidase were bound to the washed membrane, and protein bands were detected using a chemiluminescence kit (Thermo Fisher Scientific, Carlsbad, CA, USA).
To confirm the dose-dependent downregulation of PD-L1 levels by TST, which is a FOXM1 inhibitor, live cell imaging was performed on PD-L1 expression in MC38 cells. […] Fluorescence images of nuclei (λex 359 nm, λem 457 nm) and PD-L1 (λex 590 nm, λem 618 nm) were obtained using a confocal scanning laser microscope (LSM780; Carl Zeiss, Oberkochen, Germany).

[1] = tested on: human primary coronary artery smooth muscle cells (SMCs); experiment: Cell viability assay (WST-1), SMC normal cells; format: cell-based; conditions: 48 hours
Protocol: MC38 and SMC were cultured at a density of 3×10^3 cells/well in 96-well plates. The cells were treated with various concentrations of TST dissolved in the medium for 48 hours, then WST-1 reagent (MK400; Takara) was added at a concentration of 10 μL/well and cultured for 1 hour. The absorbance was measured at 450 nm for further analysis.

MC38 cells = experiment: Apoptotic cell death assay (Annexin V assay), MC38; format: cell-based, mouse; conditions: TST 5 μM, 48 hours
Protocol: MC38 cells (8.0×10^4) were seeded in 6-well plates and cultured for 24 hours. The cells were treated with TST (5 μM) for 48 hours, harvested, and analyzed via FACS-Verse using a BD FITC Annexin V Apoptosis Detection Kit I (Cat No. 556547; BD Biosciences, San Diego, CA, USA) according to the manufacturer's protocol.

For thiostrepton [TST], the “decrease in relative luciferase activity (CD274 promoter activity)” value (CD274 promoter; H1299) was 53%, the “decrease in relative luciferase activity (CD274 promoter activity)” value (CD274 promoter; PC9) was 66% and the “level of PD-L1 in the plasma membrane” value (FOXM1 and PD-L1; MC38, TST 0, 1, 5, and 10 μM, 48 hours) was “dose-dependently decreased”. The “FOXM1 and PD-L1 expression levels” value (FOXM1 and PD-L1; MC38 mouse colorectal cancer cells) was “dose-dependently decreased”, the “in vitro cytotoxicity on SMC normal cells” value [1] was “no significant apoptotic cell death” and the “apoptotic cell death (flow cytometry)” value (MC38 cells) was “significantly increased apoptotic cell death”.
